From article PMC10746543, “Design principles for cyclin K molecular glue degraders” (Nature Chemical Biology, 2023)
Several values for one entry are separate records, joined by “and”; a condition that tells them apart may be missing. Identical values can stand only once.

Key:
CDK12–cyclin K and DDB1 = target: T1, CDK12–cyclin K and DDB1 (Homo sapiens, UniProt Q16531+Q9NYV4, K965R); test: TR-FRET ternary complex formation assay (compound titration); assay type: binding; conditions: raw replicate titration data
T1 construct: His6–CDK12 (a.a. 713–1,052); full-length or beta-propeller B domain deletion (ΔBPB: a.a. 396–705 deleted) constructs of His6–DDB1ΔBPB, StrepII–Avi–DDB1, or His6–Spy–DDB1; made in house; host or cells: Trichoplusia ni High Five insect cells (baculovirus)
T1 sequence (Q9NYV4 713-1052 K965R): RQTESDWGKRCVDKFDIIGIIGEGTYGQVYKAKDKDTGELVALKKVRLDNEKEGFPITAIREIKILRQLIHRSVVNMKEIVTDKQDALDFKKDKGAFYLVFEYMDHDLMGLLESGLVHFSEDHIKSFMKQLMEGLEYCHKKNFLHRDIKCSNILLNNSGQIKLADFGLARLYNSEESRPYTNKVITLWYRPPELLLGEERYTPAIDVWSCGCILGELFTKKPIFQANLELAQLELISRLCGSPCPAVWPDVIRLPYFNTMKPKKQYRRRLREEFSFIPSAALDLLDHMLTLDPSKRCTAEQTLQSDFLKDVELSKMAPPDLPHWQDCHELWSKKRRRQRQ
T1 sequence (O75909 1-267 partner): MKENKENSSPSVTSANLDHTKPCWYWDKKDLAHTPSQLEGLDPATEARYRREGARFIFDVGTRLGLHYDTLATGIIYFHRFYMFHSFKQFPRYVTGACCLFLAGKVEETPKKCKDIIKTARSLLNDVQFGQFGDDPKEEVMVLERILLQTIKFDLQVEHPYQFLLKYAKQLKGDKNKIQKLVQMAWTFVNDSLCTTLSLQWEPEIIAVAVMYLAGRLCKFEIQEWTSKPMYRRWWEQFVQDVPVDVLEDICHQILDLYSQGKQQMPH
T1 sequence (Q16531 whole entry): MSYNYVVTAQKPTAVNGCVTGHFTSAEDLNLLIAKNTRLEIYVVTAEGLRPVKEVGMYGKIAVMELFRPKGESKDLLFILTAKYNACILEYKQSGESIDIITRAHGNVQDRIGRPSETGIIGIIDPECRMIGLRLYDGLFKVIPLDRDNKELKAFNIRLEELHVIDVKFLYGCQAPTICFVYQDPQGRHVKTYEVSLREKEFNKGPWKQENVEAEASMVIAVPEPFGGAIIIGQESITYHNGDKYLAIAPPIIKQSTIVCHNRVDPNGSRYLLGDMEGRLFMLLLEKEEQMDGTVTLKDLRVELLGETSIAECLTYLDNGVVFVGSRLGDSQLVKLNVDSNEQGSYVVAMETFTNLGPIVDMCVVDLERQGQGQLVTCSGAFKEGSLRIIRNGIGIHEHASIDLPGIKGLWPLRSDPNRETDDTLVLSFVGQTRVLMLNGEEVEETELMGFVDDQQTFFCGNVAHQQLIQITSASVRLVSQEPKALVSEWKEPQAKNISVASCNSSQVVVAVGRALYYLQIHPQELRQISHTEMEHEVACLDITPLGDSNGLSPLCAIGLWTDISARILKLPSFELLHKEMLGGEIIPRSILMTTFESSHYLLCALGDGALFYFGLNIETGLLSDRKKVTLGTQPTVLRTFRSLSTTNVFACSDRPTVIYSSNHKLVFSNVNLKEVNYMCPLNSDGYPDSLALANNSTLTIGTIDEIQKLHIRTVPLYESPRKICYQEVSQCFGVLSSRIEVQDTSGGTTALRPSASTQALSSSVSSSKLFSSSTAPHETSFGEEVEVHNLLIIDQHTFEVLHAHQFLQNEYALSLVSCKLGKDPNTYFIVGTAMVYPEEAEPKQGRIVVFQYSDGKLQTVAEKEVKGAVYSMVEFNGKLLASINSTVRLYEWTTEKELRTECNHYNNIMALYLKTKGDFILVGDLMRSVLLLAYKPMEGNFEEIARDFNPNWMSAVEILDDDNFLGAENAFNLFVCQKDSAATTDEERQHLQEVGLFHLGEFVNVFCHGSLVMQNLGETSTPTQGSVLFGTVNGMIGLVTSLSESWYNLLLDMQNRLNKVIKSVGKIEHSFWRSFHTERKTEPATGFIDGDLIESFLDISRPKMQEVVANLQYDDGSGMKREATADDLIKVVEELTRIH
Description: A 70 μs delay was employed to reduce background fluorescence. The TR-FRET signal was obtained through calculating the ratio of 520 nm to 490 nm fluorescence, and Prism 9 (GraphPad) was used for further data analysis.

[1] = system: cyclin K–eGFP degradation reporter; test: Cyclin K reporter stability analysis (dual-color cyclin K–eGFP reporter); assay type: cell-based, human; conditions: Supplementary Table 2; HEK293T cycK-eGFP reporter, 5 h; read-out: Cellular assays DC50
Protocol: HEK293T–Cas9 cells expressing the cyclin K–eGFP degradation reporter were resuspended at 1 × 10^6 ml^−1 and 50 µl of cell suspension was seeded in non-cell-culture-treated 384-well plates. Shortly after, cells were treated with drug or DMSO for 5 h. […] The fluorescent signal was quantified by flow cytometry (LSRFortessa flow cytometer, BD Biosciences). Using FlowJo (flow cytometry analysis software, BD Biosciences), the geometric mean of the eGFP and mCherry fluorescent signal for round and mCherry-positive cells was calculated. The ratio of eGFP to mCherry was normalized to the average of three DMSO-treated controls.

HEK293T cells = test: Drug sensitivity assay (CellTiter-Glo viability) with or without MLN4924 pretreatment; assay type: cell-based, human; conditions: Supplementary Table 2
Protocol: HEK293T–Cas9 cells were resuspended at 0.15 × 10^6 ml^−1 treated with DMSO or 100 nM MLN4924 and plated on 384-well plates. After 2 h, the indicated drugs were dispensed with a D300 digital dispenser (Tecan). After 3 days of drug exposure, cell viability was assessed using the CellTiter-Glo luminescent assay (Promega, G7572) on an CLARIOstar Plus, MARS 3.4 (BMG LabTech). Cell viabilities were calculated relative to DMSO controls.

TR-FRET signal at compound concentration 4.68 nM (CDK12–cyclin K and DDB1; compound concentration 4.68 nM) | TR-FRET signal at compound concentration 21.6 nM (CDK12–cyclin K and DDB1; compound concentration 21.6 nM) | TR-FRET signal at compound concentration 36 nM (CDK12–cyclin K and DDB1; compound concentration 36 nM) | TR-FRET signal at compound concentration 79.2001 nM (CDK12–cyclin K and DDB1; compound concentration 79.2001 nM) | TR-FRET signal at compound concentration 158.4 nM (CDK12–cyclin K and DDB1; compound concentration 158.4 nM) | TR-FRET signal at compound concentration 309.6 nM (CDK12–cyclin K and DDB1; compound concentration 309.6 nM) | TR-FRET signal at compound concentration 626.401 nM (CDK12–cyclin K and DDB1; compound concentration 626.401 nM) | TR-FRET signal at compound concentration 1252.8 nM (CDK12–cyclin K and DDB1; compound concentration 1252.8 nM) | TR-FRET signal at compound concentration 2448 nM (CDK12–cyclin K and DDB1; compound concentration 2448 nM) | TR-FRET signal at compound concentration 9936.01 nM (CDK12–cyclin K and DDB1; compound concentration 9936.01 nM) | TR-FRET signal at compound concentration 20016 nM (CDK12–cyclin K and DDB1; compound concentration 20016 nM) | DC50 [1] | Compound | EC50 (HEK293T cells; Homo sapiens, HEK-293T, HEK293T viability, 72 h, compound alone, read-out: Cellular assays EC50) | Toxicity rescue (HEK293T cells; MLN4924-mediated cytotoxicity rescue, 10 µM used where n.d.)
0.2092 and 0.2185 | 0.2003 and 0.2155 | 0.2049 and 0.2158 | 0.208 and 0.2231 | 0.2009 and 0.2135 | 0.2037 and 0.2058 | 0.2061 and 0.2177 | 0.2168 and 0.2226 | 0.212 and 0.232 | 0.2386 and 0.258 | 0.2819 and 0.2859 | > 10000 nM | CCc1ccc2nc(Nc3cc(Cc4ccccc4)nc(N[C@H]4CC[C@H](O)CC4)n3)sc2c1 [GSK2250665A, reference compound] |  | 
 |  |  |  |  |  |  |  |  |  |  | < 50 nM | CC(C)(C)c1cnc(CSc2cnc(NC(=O)C3CCN(CC(=O)NCCOCCOCCOCCNc4cccc5c4C(=O)N(C4CCC(=O)NC4=O)C5=O)CC3)s2)o1 (stereo not drawn) [THAL-SNS032] | 192 nM | 267%
